ChEMBL document CHEMBL1909046, “DrugMatrix in vitro pharmacology data”
*1 amine or outer side, *2 acyl side, *3 side chain or, on linkers, in order; H or OH if unused. Where a SMILES comes first, the peptide text is derived from it. Bridges are numbered along the chain shown (N, C = ends). Roman numbers before positions name the chains, in order. [ ]: non-standard residue; d: D form. Actinocin(1to9) = Cc1c2oc3c(C)ccc(C(=O)[*:2])c3nc-2c(C(=O)[*:1])c(N)c1=O; NMeV = CN[C@H](C(=O)O)C(C)C; Sar = CNCC(=O)O

How the values were obtained:
[1] = DRUGMATRIX: Leukotriene, BLT (LTB4) radioligand binding (ligand: [3H]LTB4); type: cell membranes, Membrane; conditions: u-937; Not Active = under 50% inhibition at 10 µM
[2] = DRUGMATRIX: Potassium Channel [KATP] radioligand binding (ligand: [3H] Glyburide); type: cell membranes, Membrane; conditions: hit-t15; Not Active = under 50% inhibition at 10 µM
[3] = molecular target: cGMP-specific 3',5'-cyclic phosphodiesterase (Homo sapiens, UniProt O76074); assay: DRUGMATRIX: Phosphodiesterase PDE5 enzyme inhibition (substrate: [3H]cGMP + cGMP); type: tissue-based; conditions: platelet; Not Active = under 50% inhibition at 10 µM
[4] = DRUGMATRIX: GABAA, Chloride Channel, TBOB radioligand binding (ligand: [3H] TBOB); type: cell membranes, Rattus norvegicus, Wistar, Cerebral cortex, Membrane; conditions: Not Active = under 50% inhibition at 10 µM
[5] = molecular target: T1, Muscarinic acetylcholine receptor M5 (Homo sapiens, UniProt P08912); type: cell membranes, CHO-K1, Membrane; conditions: cho-k1; note: in other assays of this panel Not Active means under 50% inhibition at 10 µM
T1 sequence (P08912 whole entry): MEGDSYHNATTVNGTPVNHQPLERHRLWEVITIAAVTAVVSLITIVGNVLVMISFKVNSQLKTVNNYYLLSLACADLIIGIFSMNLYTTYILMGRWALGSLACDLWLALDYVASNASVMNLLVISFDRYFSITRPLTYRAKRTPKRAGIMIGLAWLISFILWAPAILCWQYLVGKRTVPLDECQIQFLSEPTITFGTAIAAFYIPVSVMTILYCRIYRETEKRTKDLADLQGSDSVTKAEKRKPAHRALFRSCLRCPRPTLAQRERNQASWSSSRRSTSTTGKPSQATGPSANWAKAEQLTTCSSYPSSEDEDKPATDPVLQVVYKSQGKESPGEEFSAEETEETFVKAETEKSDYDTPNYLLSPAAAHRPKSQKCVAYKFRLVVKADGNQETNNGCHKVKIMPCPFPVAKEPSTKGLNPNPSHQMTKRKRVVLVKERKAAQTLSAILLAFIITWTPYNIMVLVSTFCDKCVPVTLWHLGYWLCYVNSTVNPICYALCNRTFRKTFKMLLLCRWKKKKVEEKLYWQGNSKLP

Adenosine receptor A2a = Adenosine receptor A2a (Homo sapiens, UniProt P29274); assay: DRUGMATRIX: Adenosine A2A radioligand binding (ligand: […]); type: cell membranes, Membrane; conditions: hek293; Not Active = under 50% inhibition at 10 µM
[6] = DRUGMATRIX: Calcium Channel Type L, Phenylalkylamine radioligand binding (ligand: [3H] (-)-Desmethoxyverapamil (D-888)); type: cell membranes, Rattus norvegicus, Wistar, Brain, Membrane; conditions: Not Active = under 50% inhibition at 10 µM

Adenosine receptor A2a, sequence (P29274 whole entry): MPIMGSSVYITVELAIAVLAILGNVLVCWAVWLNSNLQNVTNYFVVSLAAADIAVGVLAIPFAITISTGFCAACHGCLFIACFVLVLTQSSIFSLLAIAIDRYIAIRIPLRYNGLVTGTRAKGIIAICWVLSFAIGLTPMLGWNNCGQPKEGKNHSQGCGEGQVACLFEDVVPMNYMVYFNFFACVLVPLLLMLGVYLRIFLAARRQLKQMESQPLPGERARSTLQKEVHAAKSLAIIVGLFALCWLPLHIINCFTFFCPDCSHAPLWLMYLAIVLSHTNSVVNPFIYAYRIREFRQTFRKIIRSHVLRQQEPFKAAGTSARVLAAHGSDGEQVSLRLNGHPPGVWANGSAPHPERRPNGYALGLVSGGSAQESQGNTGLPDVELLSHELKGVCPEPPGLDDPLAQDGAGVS

CC(NC(C)(C)C)C(=O)c1cccc(Cl)c1 (stereo unspecified) [BUPROPION]
Not Active: IC50 [1] | Ki [1] | IC50 [2] | Ki [2] | IC50 [3] | IC50 [4] | Ki [4] | IC50 [5] | IC50 (Adenosine receptor A2a) | IC50 [6] | Ki [6]

CN(Cc1ccc(C(C)(C)C)cc1)Cc1cccc2ccccc12 [BUTENAFINE]
Not Active: IC50 [1] | Ki [1] | IC50 [2] | Ki [2] | IC50 [3] | IC50 [4] | Ki [4] | IC50 [5] | IC50 (Adenosine receptor A2a) | IC50 [6] | Ki [6]

C[C@H](CS)C(=O)N1CCC[C@H]1C(=O)O [CAPTOPRIL]
Not Active: IC50 [1] | Ki [1] | IC50 [2] | Ki [2] | IC50 [3] | IC50 [4] | Ki [4] | IC50 [5] | IC50 (Adenosine receptor A2a) | IC50 [6] | Ki [6]

Cc1ccc(-c2cc(C(F)(F)F)nn2-c2ccc(S(N)(=O)=O)cc2)cc1 [CELECOXIB]
Not Active: IC50 [1] | Ki [1] | IC50 [2] | Ki [2] | IC50 [3] | IC50 [4] | Ki [4] | IC50 [5] | IC50 (Adenosine receptor A2a) | IC50 [6] | Ki [6]

O=C(O)CCCc1ccc(N(CCCl)CCCl)cc1 [CHLORAMBUCIL]
Not Active: IC50 [1] | Ki [1] | IC50 [2] | Ki [2] | IC50 [3] | IC50 [4] | Ki [4] | IC50 [5] | IC50 (Adenosine receptor A2a) | IC50 [6] | Ki [6]

C[C@H](CCC(=O)O)[C@H]1CC[C@H]2[C@@H]3[C@H](O)C[C@@H]4C[C@H](O)CC[C@]4(C)[C@H]3C[C@H](O)[C@]12C [CHOLIC ACID]
Not Active: IC50 [1] | Ki [1] | IC50 [2] | Ki [2] | IC50 [3] | IC50 [4] | Ki [4] | IC50 [5] | IC50 (Adenosine receptor A2a) | IC50 [6] | Ki [6]

Cc1cc(C2CCCCC2)n(O)c(=O)c1 [CICLOPIROX]
Not Active: IC50 [1] | Ki [1] | IC50 [2] | Ki [2] | IC50 [3] | IC50 [4] | Ki [4] | IC50 [5] | IC50 (Adenosine receptor A2a) | IC50 [6] | Ki [6]

CC1=C2C(=CO[C@H](C)[C@H]2C)C(O)=C(C(=O)O)C1=O [CITRININ]
Not Active: IC50 [1] | Ki [1] | IC50 [2] | Ki [2] | IC50 [3] | IC50 [4] | Ki [4] | IC50 [5] | IC50 (Adenosine receptor A2a) | IC50 [6] | Ki [6]

CC(C)(C)NCC(O)c1cc(Cl)c(N)c(Cl)c1 (stereo unspecified) [CLENBUTEROL]
Not Active: IC50 [1] | Ki [1] | IC50 [2] | Ki [2] | IC50 [3] | IC50 [4] | Ki [4] | IC50 [5] | IC50 (Adenosine receptor A2a) | IC50 [6] | Ki [6]

CC(C)(Oc1ccc(Cl)cc1)C(=O)O [CLOFIBRIC ACID]
Not Active: IC50 [1] | Ki [1] | IC50 [2] | Ki [2] | IC50 [3] | IC50 [4] | Ki [4] | IC50 [5] | IC50 (Adenosine receptor A2a) | IC50 [6] | Ki [6]

Clc1cccc(Cl)c1NC1=NCCN1 [CLONIDINE]
Not Active: IC50 [1] | Ki [1] | IC50 [2] | Ki [2] | IC50 [3] | IC50 [4] | Ki [4] | IC50 [5] | IC50 (Adenosine receptor A2a) | IC50 [6] | Ki [6]

Cc1cc(C(C#N)c2ccc(Cl)cc2)c(Cl)cc1NC(=O)c1cc(I)cc(I)c1O (stereo unspecified) [CLOSANTEL]
Not Active: IC50 [1] | Ki [1] | IC50 [2] | Ki [2] | IC50 [3] | IC50 [4] | Ki [4] | IC50 [5] | IC50 (Adenosine receptor A2a) | IC50 [6] | Ki [6]

Cc1onc(-c2ccccc2Cl)c1C(=O)N[C@@H]1C(=O)N2[C@@H]1SC(C)(C)[C@@H]2C(=O)O [CLOXACILLIN]
Not Active: IC50 [1] | Ki [1] | IC50 [2] | Ki [2] | IC50 [3] | IC50 [4] | Ki [4] | IC50 [5] | IC50 (Adenosine receptor A2a) | IC50 [6] | Ki [6]

CC1CC(OC(=O)C(O)c2ccccc2)CC(C)(C)C1 (stereo unspecified) [CYCLANDELATE]
Not Active: IC50 [1] | Ki [1] | IC50 [2] | Ki [2] | IC50 [3] | IC50 [4] | Ki [4] | IC50 [5] | IC50 (Adenosine receptor A2a) | IC50 [6] | Ki [6]

Cc1c2oc3c(C)ccc(C(=O)N[C@@H]4C(=O)N[C@H](C(C)C)C(=O)N5CCC[C@H]5C(=O)N(C)CC(=O)N(C)[C@@H](C(C)C)C(=O)O[C@@H]4C)c3nc-2c(C(=O)N[C@@H]2C(=O)N[C@H](C(C)C)C(=O)N3CCC[C@H]3C(=O)N(C)CC(=O)N(C)[C@@H](C(C)C)C(=O)O[C@@H]2C)c(N)c1=O [DACTINOMYCIN] (I: T[dV]P[Sar][NMeV] / II: T[dV]P[Sar][NMeV]; ester I:1-I:C, II:1-II:C; linker I:N-II:N via Actinocin(1to9))
Not Active: IC50 [1] | Ki [1] | IC50 [2] | Ki [2] | IC50 [3] | IC50 [4] | Ki [4] | IC50 [5] | IC50 (Adenosine receptor A2a) | IC50 [6] | Ki [6]

Cc1c(O)c(=O)ccn1C [DEFERIPRONE]
Not Active: IC50 [1] | Ki [1] | IC50 [2] | Ki [2] | IC50 [3] | IC50 [4] | Ki [4] | IC50 [5] | IC50 (Adenosine receptor A2a) | IC50 [6] | Ki [6]

CNCCCN1c2ccccc2CCc2ccccc21 [DESIPRAMINE]
Not Active: IC50 [1] | Ki [1] | IC50 [2] | Ki [2] | IC50 [3] | IC50 [4] | Ki [4] | IC50 [5] | IC50 (Adenosine receptor A2a) | IC50 [6] | Ki [6]

O=c1oc2ccccc2c(O)c1Cc1c(O)c2ccccc2oc1=O [DICUMAROL]
Not Active: IC50 [1] | Ki [1] | IC50 [2] | Ki [2] | IC50 [3] | IC50 [4] | Ki [4] | IC50 [5] | IC50 (Adenosine receptor A2a) | IC50 [6] | Ki [6]

C[C@H]1O[C@@H](O[C@H]2[C@@H](O)C[C@H](O[C@H]3[C@@H](O)C[C@H](O[C@H]4CC[C@@]5(C)[C@H](CC[C@@H]6[C@@H]5C[C@@H](O)[C@]5(C)[C@@H](C7=CC(=O)OC7)CC[C@]65O)C4)O[C@@H]3C)O[C@@H]2C)C[C@H](O)[C@@H]1O [DIGOXIN]
Not Active: IC50 [1] | Ki [1] | IC50 [2] | Ki [2] | IC50 [3] | IC50 [4] | Ki [4] | IC50 [5] | IC50 (Adenosine receptor A2a) | IC50 [6] | Ki [6]

CC(C)[C@@]1(NC(=O)[C@@H]2C[C@@H]3c4cccc5[nH]cc(c45)C[C@H]3N(C)C2)O[C@@]2(O)[C@@H]3CCCN3C(=O)[C@H](Cc3ccccc3)N2C1=O.CS(=O)(=O)O [DIHYDROERGOCRISTINE MESYLATE]
Not Active: IC50 [1] | Ki [1] | IC50 [2] | Ki [2] | IC50 [3] | IC50 [4] | Ki [4] | IC50 [5] | IC50 (Adenosine receptor A2a) | IC50 [6] | Ki [6]

CC(=O)O[C@@]12CO[C@@H]1C[C@H](O)[C@@]1(C)C(=O)[C@H](O)C3=C(C)[C@@H](OC(=O)[C@H](O)[C@@H](NC(=O)OC(C)(C)C)c4ccccc4)C[C@@](O)([C@@H](OC(=O)c4ccccc4)[C@H]21)C3(C)C.O.O.O [DOCETAXEL]
Not Active: IC50 [1] | Ki [1] | IC50 [2] | Ki [2] | IC50 [3] | IC50 [4] | Ki [4] | IC50 [5] | IC50 (Adenosine receptor A2a) | IC50 [6] | Ki [6]
